structure (smiles),measurement,setting,value
O=C1Nc2ccccc2C1=O,solubility (mole fraction),"in 1,4-dioxane, 293.15 K",0.0162
same,solubility (mole fraction),"in 1,4-dioxane, 298.15 K",0.0188
same,solubility (mole fraction),"in 1,4-dioxane, 303.15 K",0.0218
same,solubility (mole fraction),"in 1,4-dioxane, 308.15 K",0.0252
same,solubility (mole fraction),"in 1,4-dioxane, 313.15 K",0.029
same,solubility (mole fraction),"in 1,4-dioxane, 318.15 K",0.0331
same,solubility (mole fraction),"in 1,4-dioxane, 323.15 K",0.0378
same,solubility (mole fraction),"in 1,4-dioxane, 328.15 K",0.0428
same,solubility (mole fraction),"in 1,4-dioxane, 333.15 K",0.0484
same,solubility (mole fraction),"in DMF, 283.15 K",0.127
same,solubility (mole fraction),"in DMF, 288.25 K",0.135
same,solubility (mole fraction),"in DMF, 293.25 K",0.143
same,solubility (mole fraction),"in DMF, 298.15 K",0.151
same,solubility (mole fraction),"in DMF, 303.15 K",0.16
same,solubility (mole fraction),"in DMF, 308.25 K",0.17
same,solubility (mole fraction),"in DMF, 313.25 K",0.179
same,solubility (mole fraction),"in DMF, 318.45 K",0.19
same,solubility (mole fraction),"in DMF, 323.15 K",0.198
same,solubility (mole fraction),"in DMF, 328.15 K",0.209
same,solubility (mole fraction),"in DMF, 333.15 K",0.218
same,solubility (mole fraction),"in THF, 289.85 K",0.0197
same,solubility (mole fraction),"in THF, 297.15 K",0.0234
same,solubility (mole fraction),"in THF, 301.15 K",0.0254
same,solubility (mole fraction),"in THF, 305.15 K",0.028
same,solubility (mole fraction),"in THF, 308.95 K",0.0301
same,solubility (mole fraction),"in THF, 314.05 K",0.0335
same,solubility (mole fraction),"in THF, 318.35 K",0.0367
same,solubility (mole fraction),"in THF, 323.15 K",0.0399
same,solubility (mole fraction),"in acetone, 287.25 K",0.0109
same,solubility (mole fraction),"in acetone, 292.75 K",0.0125
same,solubility (mole fraction),"in acetone, 298.45 K",0.014
same,solubility (mole fraction),"in acetone, 302.65 K",0.0158
same,solubility (mole fraction),"in acetone, 308.35 K",0.0174
same,solubility (mole fraction),"in acetone, 312.65 K",0.0193
same,solubility (mole fraction),"in acetone, 318.15 K",0.0217
same,solubility (mole fraction),"in acetone, 323.35 K",0.0241
same,solubility (mole fraction),"in acetonitrile, 283.15 K",0.0042
same,solubility (mole fraction),"in acetonitrile, 288.35 K",0.00498
same,solubility (mole fraction),"in acetonitrile, 294.65 K",0.00608
same,solubility (mole fraction),"in acetonitrile, 298.15 K",0.00675
same,solubility (mole fraction),"in acetonitrile, 303.15 K",0.00789
same,solubility (mole fraction),"in acetonitrile, 308.15 K",0.00893
same,solubility (mole fraction),"in acetonitrile, 313.15 K",0.0103
same,solubility (mole fraction),"in acetonitrile, 318.15 K",0.0118
same,solubility (mole fraction),"in acetonitrile, 323.15 K",0.0136
same,solubility (mole fraction),"in dichloromethane, 278.15 K",0.000788
same,solubility (mole fraction),"in dichloromethane, 282.35 K",0.000876
same,solubility (mole fraction),"in dichloromethane, 286.25 K",0.000982
same,solubility (mole fraction),"in dichloromethane, 290.55 K",0.0011
same,solubility (mole fraction),"in dichloromethane, 293.15 K",0.0012
same,solubility (mole fraction),"in dichloromethane, 296.95 K",0.00132
same,solubility (mole fraction),"in dichloromethane, 299.85 K",0.00141
same,solubility (mole fraction),"in dichloromethane, 303.25 K",0.00153
same,solubility (mole fraction),"in dichloromethane, 307.65 K",0.0017
same,solubility (mole fraction),"in ethyl acetate, 288.15 K",0.00421
same,solubility (mole fraction),"in ethyl acetate, 293.35 K",0.0048
same,solubility (mole fraction),"in ethyl acetate, 298.25 K",0.00565
same,solubility (mole fraction),"in ethyl acetate, 303.65 K",0.00637
same,solubility (mole fraction),"in ethyl acetate, 308.65 K",0.00733
same,solubility (mole fraction),"in ethyl acetate, 313.35 K",0.00822
same,solubility (mole fraction),"in ethyl acetate, 318.15 K",0.0092
same,solubility (mole fraction),"in ethyl acetate, 323.35 K",0.0103
same,solubility (mole fraction),"in toluene, 288.15 K",0.000588
same,solubility (mole fraction),"in toluene, 293.15 K",0.000637
same,solubility (mole fraction),"in toluene, 298.15 K",0.000685
same,solubility (mole fraction),"in toluene, 303.15 K",0.000714
same,solubility (mole fraction),"in toluene, 308.15 K",0.000771
same,solubility (mole fraction),"in toluene, 313.15 K",0.000819
same,solubility (mole fraction),"in toluene, 318.15 K",0.000884
same,solubility (mole fraction),"in toluene, 323.15 K",0.000926

# From BigSolDB 2.1
